Laboratory results from patent EP0151577B1 (priority 1983, dated 1984).

Columns and labels:
[1] = Acute toxicity in the mouse, DL50 i.v. (Behrens-Karber); conditions: in vivo, iv, souris, survivors checked 15 days after administration, read-out: DL 50 i.v.
From the text: D'autres études pharmacologiques ont été entreprises, en particulier pour apprécier la toxicite aigue chez la souris. Les divers produits étudiés sont administrés a doses croissantes en progression arithmetique a des lots de 5 souris femelles SWISS, EOPS, NMRI/Han pesant 23 a 24 g.
Les produits sont solubilises dans I'eau distillée. Les DL 50 sont calculées par la méthode de BEHRENS (B.) et KARBER (C.). Le nombre d'animaux survivants dans les differents lots est vérifié 15 jours après I'administration des produits. La toxicité aigue (DL 50) exprimée en g/kg est supérieure a 5, avec la voie d'administration i.v. pour le DF-5HTP un produit représentatif selon l'invention.

souris [2] = assay: General pharmacological profile: spontaneous motor activity; format: in vivo; conditions: souris
From the text: Activite motrice spontanée: MODIGH, K., Central and peripheral effects of 5-hydroxytryptophan on motor activity in mice. Psychopharmacologia (Berlin), 23, 48, 1972. Cadence respiratoire: […], S., and VALZELLI, L. Serotonin and cardiovascular system, Chapter 9, in "Serotonin", Elsevier Publ. Co. Amsterdam 1965.

souris [3] = assay: Anticonvulsant activity, MES; format: in vivo
From the text: Activite anticonvulsivante (MES): % de protection Temps de sommeil au pentobarbital: WYATT, R.J., ZARKONE, V. […], K., DEMENT, W.C., SMYDER, F. and SJOERDSMA, A., Effects of 5-Hydroxytryptophan on the sleep of normal human subjects. Electroencephaly and Clinical Neurophysiology 30, 5051971.

souris [4] = assay: Anti-stress activity: swimming endurance; format: in vivo; conditions: 174 mg/kg i.p., souris observed up to 540 min; témoins 385 ± 31 min
Protocol: Au tableau 4, la lettre N designe le nombre d'animaux (souris). Un astérisque indique une activite importante. Deux astérisques indiquent une possibilité d'activité positive. Dans I'essai d'endurance a la nage, on a observe les souris jusqu'à 540 minutes, la durée moyenne de nage pour les souris témoins étant de 385 ± 31 minutes.
(N) - représente le nombre d'animaux * - activité importante ** - activite positive possible Pour I'endurance a la nage, les souris ont été observées jusqu'à 540 min, la durée moyenne de nage chez les souris témoins était de 385 + 31 min. *** - La leucocytose a été induite par 0,1 ml de lait (sous-cutanée) avant traitement avec le medicament.

rat = assay: Anti-stress activity: restraint ulcer in the rat; format: in vivo; conditions: 174 mg/kg i.p.
From the text: BONFILS, S., LIEFOOGHE, GK, ROSSI, G. and LAMBLING, A. L'ulcère de contrainte du Rat blanc. Modifications de la fréquence lesionnelle par différents precedes opératoires et pharmacodynamiques. C.R. Soc. Biol., 151, 1149, 1957.
BONFILS, S., ROSSI, G., LIEFOOGHE, G. and LAMBLING, A., Ulcère experimental de contrainte, I. Méthodes, fréquence des lesions, modifications par certains precedes techniques et pharmacologiques. Rev. franç. Etudes clin. biol., 4,146, 1959.

souris [5] = assay: Anti-stress activity: milk-induced leucocytosis; format: in vivo; conditions: 174 mg/kg i.p.; 0,1 ml de lait s.c. before treatment; lait seulement 23866 ± 214
[6] = test system: réponse à l'obstruction de la carotide; assay: Cardiovascular activity: response to carotid occlusion (CO); format: in vivo
From the text: Le protocole experimental était celui décrit dans "Sugar Derivatives of Indolamines. part V: Cardiovascular Effects and "Anti-stress" Activity of Desoxyfructose Derivative of Serotonin and 5-Metho-xy- tryptamin", L. Mester, M. Mester, K.P. Bhargava, C. Labrid, G. Dureng and M. Cheucle, THROMBOSIS […], 15,245,1979.

M. Leprae = assay: Incorporation of 3H-DOPA by M. leprae in vitro; format: cell-based, Mycobacterium leprae; conditions: 6 h
From the text: Le tableau 6 rassemble des résultats d'essai concernant l'activité du DF-5HTP sur l'incorporation de la DOPA dans les Mycobacteries de la lèpre. Le protocole experimental était celui décrit dans JAYARAMAN, P., […], P.R., MESTER, M. and MESTER, L. Inhibition of the incorporation of ^3H-DOPA in Mycobacterium leprae by Desoxyfructo-serotonin. Biochem. Pharm., 29, 2526,1980.
On a inoculé 5 x 10^6 M. leprae par tube; le milieu était un tampon phosphate à pH 6,8. La quantité de 3H-DOPA était de 1 µ. Ci/tube.
Protocole: Chaque tube de 0,5 ml est inocule de 5 x 10^6 M. leprae et de 1 µ Ci de ^3H-DOPA. Après 6 heures, I'incorporation de la DOPA radioactive est enregistrée en DPM selon la technique utilisée dans JAYARAMAN, P., […], P.R., MESTER, M. and MESTER, L. Inhibition of the Incorporation of ^3H-DOPA in Mycobacterium leprae by Desoxyfructo-serotonin. Biochem. Pharm., 29,2526,1980.

[7] = In vivo metabolism of radioactive compounds, hamster plasma; conditions: après 24 heures, figure 2
From the text: La mesure de la radioactivite des diverses fractions isolées du sang des hamsters traités permet de caractériser les metabolites, lesquels sont ainsi isolés et identifies par électrophorèse. Les metabolites acides HIAA et IAA sont séparés ensemble.
On a porté le temps en abscisses (exprimé en heures) et en ordonnées le pourcentage du compose caractérisé dans le plasma.

[8] = 10 mg par voie cérébroventriculaire

## O=C(O)C(Cc1c[nH]c2ccc(O)cc12)NCC1(O)OCC(O)C(O)C1O (stereo not shown) [DF-5HTP, N-1-desoxyfructo-5-hydroxytryptophane]
[1]
  LD50 at 360 h: > 5000 mg/kg
Souris [2]; 100 mg/kg (ip), Tableau 2
  Activité motrice spontanée: légère augmentation
Souris [2]; 174 mg/kg (ip)
  Activité motrice spontanée: augmentation
Souris [3]; 100 mg/kg (ip), 15 min, Tableau 2
  Activité anticon-vulsivante MES % protection: 0%
Souris [3]; 100 mg/kg (ip), 30 min
  Activité anticon-vulsivante MES % protection: 0%
Souris [3]; 100 mg/kg (ip), 60 min
  Activité anticon-vulsivante MES % protection: 0%
Souris [3]; 174 mg/kg (ip), 15 min
  Activité anticon-vulsivante MES % protection: 20%
Souris [3]; 174 mg/kg (ip), 30 min
  Activité anticon-vulsivante MES % protection: 20%
Souris [3]; 174 mg/kg (ip), 60 min
  Activité anticon-vulsivante MES % protection: 0%
Souris [4]
  Endurance à la nage % d'augmentation: 40^** %
rat; témoin 34
  Effet anti-ulcère chez le rat (18 heures sous contrainte) Indice d'Ul-cération: 10^**(4)
rat; témoin 90
  Effet anti-ulcère chez le rat (18 heures sous contrainte) % Ul-cération: 50%
Souris [5]
  Effet sur la leu-cocytose induite par le lait Moyenne T.L.C./Cmm: 10468 ± 130 (8) /Cmm
[6]; [8]
  REPONSE CO Durée: 120 min
  REPONSE CO Mesure à: 30 min
  REPONSE CO Pic: 30 min
[6]; 100 mg par voie intraveineuse
  REPONSE CO Durée: 45 min
  REPONSE CO Mesure à: 1 min
  REPONSE CO Pic: 1 min
M. Leprae; 1 µg/ml, Armadillo M.Leprae N°2275/5, témoins 5977
  incorporation de 3H-DOPA par M. Leprae: 2922 DPM
M. Leprae; 1 µg/ml, Armadillo M.Leprae N°2275/5 Tués par la chaleur, témoins 915
  incorporation de 3H-DOPA par M. Leprae: 1008 DPM
M. Leprae; 1 µg/ml, Armadillo M.Leprae N°2457/103, témoins 4215
  incorporation de 3H-DOPA par M. Leprae: 2555 DPM
M. Leprae; 1 µg/ml, Armadillo M.Leprae N°2457/103 Tués par la chaleur, témoins 2855
  incorporation de 3H-DOPA par M. Leprae: 2660 DPM
M. Leprae; 5 µg/ml, Armadillo M.Leprae N°2275/5, témoins 5977
  incorporation de 3H-DOPA par M. Leprae: 1599 DPM
M. Leprae; 5 µg/ml, Armadillo M.Leprae N°2275/5 Tués par la chaleur, témoins 915
  incorporation de 3H-DOPA par M. Leprae: 732 DPM
M. Leprae; 5 µg/ml, Armadillo M.Leprae N°2457/103, témoins 4215
  incorporation de 3H-DOPA par M. Leprae: 1930 DPM
M. Leprae; 5 µg/ml, Armadillo M.Leprae N°2457/103 Tués par la chaleur, témoins 2855
  incorporation de 3H-DOPA par M. Leprae: 2675 DPM
[7]
  taux du compose non transformé dans le plasma: considerable
